Results as given in the NIST ThermoML archive (doi:10.1016/j.jct.2015.03.011).
Where “and” joins values, the source holds several entries; their conditions need not be identical. Equal values may be shown once. ± gives the expanded uncertainty stated by the source.

Conditions: Liquid, Transpiration method

Structure (SMILES): CC(N)CN (stereo unspecified) [1,2-propanediamine]
- vapor or sublimation pressure (273.8 K): 0.2726 ± 0.017 kPa
- vapor or sublimation pressure (274.9 K): 0.2967 ± 0.019 kPa
- vapor or sublimation pressure (276.6 K): 0.3411 ± 0.021 kPa
- vapor or sublimation pressure (277 K): 0.3482 ± 0.022 kPa
- vapor or sublimation pressure (279.1 K): 0.4011 ± 0.025 kPa
- vapor or sublimation pressure (279.7 K): 0.4205 ± 0.026 kPa
- vapor or sublimation pressure (281.3 K): 0.4594 ± 0.029 kPa
- vapor or sublimation pressure (282.7 K): 0.5281 ± 0.033 kPa
- vapor or sublimation pressure (283.2 K): 0.5245 ± 0.032 kPa
- vapor or sublimation pressure (285.3 K): 0.6214 ± 0.038 kPa
- vapor or sublimation pressure (285.7 K): 0.6306 ± 0.039 kPa
- vapor or sublimation pressure (287.3 K): 0.72 ± 0.045 kPa
- vapor or sublimation pressure (288.7 K): 0.7897 ± 0.05 kPa
- vapor or sublimation pressure (289.2 K): 0.8316 ± 0.052 kPa
- vapor or sublimation pressure (291.2 K): 0.9464 ± 0.059 kPa
- vapor or sublimation pressure (291.7 K): 0.9537 ± 0.06 kPa
- vapor or sublimation pressure (293.1 K): 1.069 ± 0.067 kPa
- vapor or sublimation pressure (294.7 K): 1.187 ± 0.074 kPa
- vapor or sublimation pressure (295.2 K): 1.234 ± 0.077 kPa
- vapor or sublimation pressure (297.1 K): 1.357 ± 0.084 kPa
- vapor or sublimation pressure (297.6 K): 1.422 ± 0.089 kPa
- vapor or sublimation pressure (299.1 K): 1.559 ± 0.098 kPa
- vapor or sublimation pressure (299.6 K): 1.629 ± 0.1 kPa
- vapor or sublimation pressure (301.2 K): 1.82 ± 0.11 kPa
- vapor or sublimation pressure (301.7 K): 1.84 ± 0.12 kPa
- vapor or sublimation pressure (303.2 K): 2.075 ± 0.13 kPa
- vapor or sublimation pressure (303.7 K): 2.099 ± 0.13 kPa
- vapor or sublimation pressure (305.7 K): 2.354 ± 0.15 kPa

Structure (SMILES): CC(C)(N)CN [2-methyl-1,2-propanediamine]
- vapor or sublimation pressure (276 K): 0.2878 ± 0.018 kPa
- vapor or sublimation pressure (276.6 K): 0.3031 ± 0.019 kPa
- vapor or sublimation pressure (277.6 K): 0.3267 ± 0.021 kPa
- vapor or sublimation pressure (278.1 K): 0.3442 ± 0.022 kPa
- vapor or sublimation pressure (279.3 K): 0.3687 ± 0.023 kPa
- vapor or sublimation pressure (280.6 K): 0.405 ± 0.026 kPa
- vapor or sublimation pressure (282.4 K): 0.4569 ± 0.029 kPa and 0.4785 ± 0.03 kPa
- vapor or sublimation pressure (283.2 K): 0.492 ± 0.031 kPa
- vapor or sublimation pressure (284.5 K): 0.548 ± 0.034 kPa and 0.5301 ± 0.033 kPa
- vapor or sublimation pressure (286 K): 0.5853 ± 0.037 kPa
- vapor or sublimation pressure (288.4 K): 0.7053 ± 0.044 kPa
- vapor or sublimation pressure (290.4 K): 0.7971 ± 0.05 kPa
- vapor or sublimation pressure (292.5 K): 0.9233 ± 0.058 kPa
- vapor or sublimation pressure (294.3 K): 1.052 ± 0.066 kPa
- vapor or sublimation pressure (295.9 K): 1.144 ± 0.072 kPa
- vapor or sublimation pressure (297.2 K): 1.299 ± 0.082 kPa
- vapor or sublimation pressure (299 K): 1.422 ± 0.089 kPa
- vapor or sublimation pressure (300.3 K): 1.575 ± 0.099 kPa
- vapor or sublimation pressure (302 K): 1.752 ± 0.11 kPa
- vapor or sublimation pressure (304.6 K): 2.037 ± 0.13 kPa
- vapor or sublimation pressure (306.1 K): 2.247 ± 0.14 kPa
- vapor or sublimation pressure (307.6 K): 2.451 ± 0.15 kPa
- vapor or sublimation pressure (308.7 K): 2.62 ± 0.16 kPa
